According to paper PMC9089363, “Nonpolymeric Citramide-Based Kinetic Hydrate Inhibitors: Good Performance with Just Six Alkylamide Groups” (ACS Omega, 2022):
Read-outs that look alike come from different tables or passages of the source.

Assays:
[1] = Cloud point (TCl) determination; assay type: physicochemical; conditions: 2500 ppm aqueous solution, heated ca. 5 °C/min up to 95 °C
Experimental: A 2500 ppm aqueous solution of each citramide derivative was heated slowly (ca. 5 °C/min), and the first sign of clouding of the solution at a certain temperature was denoted as the cloud point. Any solution that was already opaque at room temperature was first kept in a cooling room at 0–5 °C overnight before heating. Each measurement was repeated at least three times to check the reproducibility of the cloud point.

[2] = Slow constant cooling (SCC) KHI performance test in high-pressure steel rocking cells; conditions: SNG 76 bar
Experimental: 2.5 Kinetic Hydrate Inhibitor (KHI) Performance Tests in High-Pressure Rocking Cells
A rig with five high-pressure steel rocking cells was used for carrying out the KHI performance ranking of the new molecules. Each cell has a volume of 40 mL and a steel ball for agitation. The rig was supplied by PSL Systemtechnik GmbH, Germany, but the cells were constructed by Swafas, Norway (Figure 6). As in most of our KHI studies, we used a synthetic natural gas (SNG) mixture in order to compare results with a host of previous KHI studies. The SNG gives an sII hydrate as the thermodynamically stable phase (Table 1). Also, for comparative purposes we used our standard slow constant cooling (SCC) test method.[27] The pressure was approximately 76 bar at the start of each SCC experiment. At this pressure, an average equilibrium temperature (Teq) of 20.2 °C ± 0.05 °C was obtained from five repeat tests by laboratory slow dissociation experiments in the same rocking cells.[20] This agrees very well with a Teq value of 20.5 °C calculated using Calsep’s PVTSim software.
The SCC test procedure was carried out as follows: • 1. First, 20.0 mL of aqueous test solution was added to each steel cell, i.e., half the cell volume. • 2. Air was removed from the cells by alternate vacuum and filling with 1–5 bar SNG gas. • 3. The cells were filled with a 76 bar SNG mixture at room temperature, 20.5 °C. • 4. The cells were cooled from 20.5 to 2 °C at a rate of 1 °C/h while rocking. • 5. Temperature and pressure data for each cell were collected from the sensors and recorded throughout the whole cooling procedure.
Figure 8 illustrates how this is done for one cell. The small pressure drop at the very start of the graph is due to some SNG mixture dissolving in the aqueous phase. After this, the pressure drop is linear until hydrate formation is first detected at a To of 8.4 °C, where the pressure line deviates. Nucleation may have occurred somewhat earlier but is not detectable. Ta is the first temperature at which we observe the maximum rate of gas hydrate formation for the experiment.
At 8.1 °C (Ta), the first fastest pressure drop rate occurs. In this case, the rate of hydrate growth is fast shortly after To. […] The degrees of scattering in To values (≤20%) and Ta values (≤15%) are due to the stochastic nature of gas hydrate formation and are as expected from previous studies.[28] The scattering still allows for a rough ranking of the performance of the KHI samples as long as sufficient tests are carried out for a statistically significant difference using a t-test. Depending on the variation in average To between samples, 5–10 tests suffices in most cases to get a significant difference at the 95% confidence level (p < 0.05).[29]
At least 5 (and up to 10) standard constant cooling tests were employed to get each average To and average Ta value, where To denotes the temperature at which the first macroscopic detectable gas hydrate is formed and Ta denotes the rapid hydrate formation temperature in a solution. The KHI performance of each citramide derivative was compared mostly based on the To values as complete avoidance of gas hydrate formation is the preferred goal for field operations. Thus, a lower To value of a solution corresponds to a better KHI performance. […] However, caution in using this interpretation must be taken, since a low To value will mean a high driving force, which can cause more rapid macroscopic hydrate formation than a higher To value.

[3] = Solubility in water (observation); assay type: physicochemical
[4] = 2500 ppm aqueous solution, cooling 20.5 to 2 °C at 1 °C/h, average of 5-10 tests
[5] = 2500 ppm aqueous solution, cooling 20.5 to 2 °C at 1 °C/h, average of 5-10 tests, lower = better KHI
[6] = 1000 ppm aqueous solution, SCC 1 °C/h
[7] = 2500 ppm + 1 mL of n-decane each cell + 5000 ppm nBGE, SCC 1 °C/h
[8] = 2500 ppm + 1 mL of n-decane each cell, SCC 1 °C/h
[9] = 2500 ppm + 3 mL of n-decane each cell + 5000 ppm nBGE, SCC 1 °C/h

SMILES	cloud p.t Tcl [1] [°C]	av. Ta (gas hydrate rapid formation temperature) [2, 4] [°C]	av. To (gas hydrate onset temperature) [2, 5] [°C]	other results
CCCNC(=O)CC(CC(=O)NCCC)(OC(=O)CC(=O)OC(CC(=O)NCCC)(CC(=O)NCCC)C(=O)NCCC)C(=O)NCCC [malonyl-TnPrCAm, 1,3-Malonic acid bis(tripropylcitric acid) amide]	>95	13.5	16.3	
CC(C)CNC(=O)CC(CC(=O)NCC(C)C)(OC(=O)CC(=O)OC(CC(=O)NCC(C)C)(CC(=O)NCC(C)C)C(=O)NCC(C)C)C(=O)NCC(C)C [malonyl-TiBuCAm, 1,3-Malonic acid bis(triisobutylcitric acid) amide]	>95	12.7		
CCCNC(=O)CC(O)(CC(=O)NCCC)C(=O)NCCC [TnPrCAm, 2-Hydroxy-N^1,N^2,N^3-tripropylpropane-1,2,3-tricarboxamide]	>95	12.3	16.3	
CC(C)CNC(=O)CC(CC(=O)NCC(C)C)(OC(=O)COCC(=O)OC(CC(=O)NCC(C)C)(CC(=O)NCC(C)C)C(=O)NCC(C)C)C(=O)NCC(C)C [oxydiacetyl-TiBuCAm, 2,2′-oxydiacetic acid bis(triisobutylcitric acid) amide]	35	8.1	8.4	av. Ta (gas hydrate rapid formation temperature) [2, 6]: 9.2 °C; av. To (gas hydrate onset temperature) [2, 6]: 9.3 °C; av. Ta (gas hydrate rapid formation temperature) [2, 7]: 7.9 °C; av. To (gas hydrate onset temperature) [2, 7]: 8.1 °C; av. Ta (gas hydrate rapid formation temperature) [2, 8]: 7.2 °C; av. To (gas hydrate onset temperature) [2, 8]: 7.4 °C; av. Ta (gas hydrate rapid formation temperature) [2, 9]: 6.0 °C; av. To (gas hydrate onset temperature) [2, 9]: 6.2 °C
CCCCCNC(=O)CC(O)(CC(=O)NCCCCC)C(=O)NCCCCC [TnPeCAm, 2-Hydroxy-N^1,N^2,N^3-tripentylpropane-1,2,3-tricarboxamide]				solubility in water [3]: not soluble; solubility in water ([3]; listed as Tri-n-pentylcitramide): negligible solubility in water; solubility in water ([3]; listed as tri-n-pentylcitramide): not water soluble
CC(C)CNC(=O)CC(O)(CC(=O)NCC(C)C)C(=O)NCC(C)C [TiBuCAm, 2-Hydroxy-N^1,N^2,N^3-triisobutylpropane-1,2,3-tricarboxamide]	>95	13.5		
CCCNC(=O)CC(CC(=O)NCCC)(OC(=O)COCC(=O)OC(CC(=O)NCCC)(CC(=O)NCCC)C(=O)NCCC)C(=O)NCCC [oxydiacetyl-TnPrCAm, 2,2′-Oxydiacetic acid bis(tripropylcitric acid) amide]	>95	12.3	12.8	
